Test results: BindingDB's records for patent US20240043427 (Gilead Sciences, 2024)

These compounds were tested against 5'-nucleotidase (Homo sapiens, UniProt P21589) (assay: CD73 Biochemical IC50 Assay).
Protocol: Compound serial dilutions were pre-spotted into Thermo Nunc assay plate. 50 uL CD73 enzyme buffer (CD73 purchased from R&D system=0.6 nM, 25 mM Tris, pH 7.4, 5 mM MgCl2, 1 mM NaH2PO4) was added into the assay plate and incubate for 15 mins. […] The samples were analyzed using Rapid fire.

5'-nucleotidase, sequence (P21589 whole entry): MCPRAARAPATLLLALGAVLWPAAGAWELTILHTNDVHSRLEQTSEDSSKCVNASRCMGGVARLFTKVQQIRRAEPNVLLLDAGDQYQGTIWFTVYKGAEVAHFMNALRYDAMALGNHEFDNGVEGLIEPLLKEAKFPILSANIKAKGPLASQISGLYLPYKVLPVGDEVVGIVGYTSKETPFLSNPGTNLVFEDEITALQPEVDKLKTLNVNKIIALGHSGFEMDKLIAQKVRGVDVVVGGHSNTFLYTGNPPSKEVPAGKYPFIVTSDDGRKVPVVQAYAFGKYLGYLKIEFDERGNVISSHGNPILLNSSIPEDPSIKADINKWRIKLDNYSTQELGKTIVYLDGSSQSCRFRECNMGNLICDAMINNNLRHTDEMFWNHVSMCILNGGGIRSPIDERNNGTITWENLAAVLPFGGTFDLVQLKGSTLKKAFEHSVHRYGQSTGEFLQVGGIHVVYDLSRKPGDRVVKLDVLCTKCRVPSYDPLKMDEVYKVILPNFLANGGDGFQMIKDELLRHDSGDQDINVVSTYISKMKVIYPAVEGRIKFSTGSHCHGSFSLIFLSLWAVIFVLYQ

IC50 [nM]	Structure (SMILES)
67.9	CC(C)(C)COc1cc(-c2c[nH]c(=O)[nH]c2=O)nn2ccnc12 [US20240043427, Example 679]
0.32	O=c1[nH]cc(-c2cc([C@H]3C[C@@H]3c3ccc4cnn(CC(F)(F)F)c4c3F)c3ncc(F)n3n2)c(=O)[nH]1 [US20240043427, Example 630]

Structure (SMILES)	IC50 [nM]
O=c1[nH]cc(-c2cc(N3CC4CC(F)(C4)C3)c3nccn3n2)c(=O)[nH]1 [US20240043427, Example 579]	19.1
